# According to patent EP1844781A1 (priority 2006, dated 2007):
# Where two headings read alike, the source gives them in different places.
# How the values were obtained:
# Type in all cases: cell-based, Wistar rats
# uterine strips [1] = experiment: tissue or blood
# uterine strips [2] = experiment: Effect of inhibitors on electrically-induced uterine contractions (field electrical stimulation)
# uterine strips [3] = experiment: tissue or blood; conditions: for minimal effective concentration: read-out: concentration at which rhythmic contractions appeared
# uterine strips [4] = system: uterine strips
# myometrial strips = experiment: Simultaneous measurement of contractile force and [Ca2+]i (Fura-2); conditions: veratridine 60 µM; myometrial fibers loaded with Fura-2; responding strips (10 of 21)
# [5] = cumulative concentrations 1 nM-30 µM, strips exposed for 90 min (late response) to 60 µM veratridine
compound,measurement,setting,value
"CN1[C@@H]2CC[C@H]1C[C@@H](OC(=O)C(CO)c1ccccc1)C2 (stereo partly drawn) [Atropine, atropine]","contractile area of spontaneous contractions, % of the previous contractile area",uterine strips [1],26.7 ± 2.2%
same,effect on spontaneous uterine contractions,uterine strips [1],abolished or almost abolished
same,"contractile area of electrically-induced uterine contractions, % of the previous contraction",uterine strips [2],30.3 ± 8.1%
"COc1cc2nc(N3CCN(C(=O)c4ccco4)CC3)nc(N)c2cc1OC [Prazosin, prazosin]",activity at 1 µM,"uterine strips [1]; Rattus norvegicus, 40 min, read-out: contractile area of spontaneous contractions, % of the previous contractile area",108 ± 9.1%
same,activity at 1 µM,"uterine strips [2]; Rattus norvegicus, read-out: contractile area of electrically-induced uterine contractions, % of the previous contraction",92.3 ± 4%
CCN1C[C@]2(COC)[C@H](O)C[C@H](OC)[C@@]34[C@@H]5C[C@@]6(O)[C@H](OC(=O)c7ccccc7)[C@@H]5[C@@](OC(C)=O)([C@@H]([C@H](OC)[C@H]23)[C@@H]14)[C@@H](O)[C@@H]6OC [aconitine],concentration at which the maximal response was reached,uterine strips [3],100 µM
same,minimal effective concentration,uterine strips [3],≥ 100 µM
C=C(C=O)C[C@@H]1C[C@H](O)[C@]2(C)O[C@@H]3C[C@@H]4O[C@@H]5C[C@]6(C)O[C@]7(C)CC[C@@H]8O[C@@H]9C[C@]%10(C)O[C@@H]%11C(C)=CC(=O)O[C@H]%11C[C@H]%10O[C@H]9C[C@@H](C)[C@H]8O[C@H]7C[C@H]6O[C@H]5C/C=C\[C@H]4O[C@H]3C[C@H]2O1 [brevetoxin-B],concentration at which the maximal response was reached,uterine strips [3],0.03 µM
O=C(NCC1CCCCN1)c1cc(OCC(F)(F)F)ccc1OCC(F)(F)F (stereo not drawn) [flecainide],effect on veratridine-induced rhythmic contractions,uterine strips [4]; [5],did not modify
COc1ccc(C(=O)O[C@H]2CC[C@@]3(C)[C@@H]4CC[C@H]5[C@]6(O)C[C@H](O)[C@@]7(O)[C@@H](CN8C[C@@H](C)CC[C@H]8[C@@]7(C)O)[C@]6(O)C[C@@]53O[C@]24O)cc1OC [veratridine],minimal effective concentration,"uterine strips [3]; Rattus norvegicus, […], non-pregnant rats, undetermined stage of the ovarian cycle",≥ 10 µM
same,concentration at which the maximal response was reached,"uterine strips [3]; measured during a 60 min application, 1.9 or 1.1 mM Ca2+-containing solution",60 µM
same,time the contractile response remained very regular and well maintained after addition,"uterine strips [3]; veratridine 60 µM, continuous presence, 24 uterine strips from 12 animals",at least 12 h
same,frequency of contractions,myometrial strips,0.75 ± 0.09 min⁻¹
same,mean amplitude of rhythmic contractions during a 10-min period,myometrial strips,8.48 ± 1.20 mN
CCOC(=O)C1=C[C@]2(CC)CCCN3CCc4c(n1c1ccccc41)[C@@H]32 [vinpocetine],effect on veratridine-induced rhythmic contractions,uterine strips [4]; [5],did not modify
grayanotoxin,concentration at which the maximal response was reached,uterine strips [3],30 µM
same,minimal effective concentration,uterine strips [3],≥ 20 µM
µ-conotoxin GIIIB,effect on veratridine-induced rhythmic contractions,uterine strips [4],did not modify
